Test results published in the OligoGym collection.
Where “and” joins values, the source holds several entries; their conditions need not be identical. Identical values can stand only once. After the bases stand the sugars from the 5' end (letter, count) and the backbone: PS all phosphorothioate, else s phosphorothioate and o phosphodiester by linkage. Methylation of C is not given here. e = 2'-O-(2-methoxyethyl) (MOE); k = constrained ethyl (cEt); d = 2'-deoxy (DNA)

Target: IRF4
Conditions: ASO

Sequence	target mRNA inhibition (SK-MEL-28, 4 µM)	target mRNA inhibition (MM.1R, 1 µM)	further results
AGCCACTATGGTAGGA (sugars k3 d10 k3, PS)	43%	–	–
CTTTAACAAGTCCTCA (sugars k3 d10 k3, PS)	52%	–	–
TAGTTAAGTACTTGGA (sugars k3 d10 k3, PS)	56%	–	–
GTAGTATGAGAAACGG (sugars kkdddddddddekeke, PS)	–	35%	–
TTAAAGGAGTGCAGGA (sugars k3 d10 k3, PS)	16%	–	–
ATCAGAATGGCGAGTT (sugars k3 d10 k3, PS)	47%	–	–
TCTCAAGGAGATCCAC (sugars k3 d10 k3, PS)	1%	–	–
CAGGTTTCATTTCATT (sugars k4 d8 k4, PS)	54%	–	target mRNA inhibition (MM.1R, 0.074 µM): 2%; target mRNA inhibition (MM.1R, 0.222 µM): 3%; target mRNA inhibition (MM.1R, 0.666 µM): 19%; target mRNA inhibition (MM.1R, 2 µM): 15%; target mRNA inhibition (SK-MEL-28, 0.185 µM): 14% and 13% and 18%; target mRNA inhibition (SK-MEL-28, 5 µM): 57% and 55% and 67%; target mRNA inhibition (SK-MEL-28, 15 µM): 74% and 72%
CTAGTTTAAGGGTTAC (sugars k3 d10 k3, PS)	27%	–	–
CAAGGATAACCTGAAC (sugars k3 d10 k3, PS)	26%	–	–
TCCCTAGGTCATACCC (sugars k3 d10 k3, PS)	58%	–	–
TGCATAGTGATGAGAT (sugars k3 d10 k3, PS)	37%	–	–
CTCTAGTCAGTGTCAA (sugars k3 d10 k3, PS)	59%	–	–
CAGCATAGCATTATCT (sugars k3 d10 k3, PS)	-51%	–	–
AGTATGAGAAACGGCC (sugars kkkdddddddddkeke, PS)	–	16%	–
GTTCTAGGGTCCTCCT (sugars k3 d10 k3, PS)	50%	–	–
TTTATATATGACGACT (sugars k3 d10 k3, PS)	39%	–	–
GCACGGAGAGGGCGAG (sugars k3 d10 k3, PS)	–	4%	–

Sequence	target mRNA inhibition (SK-MEL-28, 4 µM)	target mRNA inhibition (MM.1R, 1 µM)	further results
GGGCATGTGACTGGAG (sugars k3 d10 k3, PS)	50%	–	–
TGTGATAGCTGAGCTG (sugars kdddddddddkekeke, PS)	–	18%	–
GCCTTGAAGAGCGCGG (sugars k3 d10 k3, PS)	9%	–	–
TAGCATCAGAGCTAGA (sugars k3 d10 k3, PS)	49%	–	–
CTTTTTAGTTCATACC (sugars k3 d10 k3, PS)	37%	–	–
CAGTGATGTCAGGTTT (sugars kkddddddddddkeke, PS)	–	41%	–
TACAGGCACGGCTTCA (sugars k3 d10 k3, PS)	58%	–	–
TCAGATTTACACCGTT (sugars k3 d10 k3, PS)	–	14%	–
AGCTACAAAGAGCACT (sugars k3 d10 k3, PS)	33%	–	–
CTGAGAGTAAACTTGG (sugars k3 d10 k3, PS)	–	-1%	–
TTGATGTGATAGCTGA (sugars kkdddddddddekeke, PS)	–	28%	–
CTATAGTGTTCCAGGA (sugars kkkdddddddddkeke, PS)	–	22%	–
TGTGAACCTGCTAAAG (sugars k3 d10 k3, PS)	–	-10%	–
AAGCATTTTATCATCC (sugars kdddddddddkekeke, PS)	–	6%	–
CAGAACTAATGTCCCC (sugars k3 d10 k3, PS)	69%	–	–
ACTAACTGGCTTCCAG (sugars k3 d10 k3, PS)	31%	–	–
GCACATCAATGTTTTA (sugars kdddddddddkekeke, PS)	–	17% and 15%	–
CGACAAGTGGCGCAGA (sugars k3 d10 k3, PS)	–	2%	–
